Data taken from patent US20230391779A1, “BICYCLIC COMPOUNDS, COMPOSITIONS AND USE THEREOF” (Betta Pharmaceuticals Co., Ltd., priority 2020, published 2023).

Each compound was assayed on TEAD-YAP/TAZ interaction (assay: CTGF ELISA assay). Conditions: CTGF in culture supernatant of NCI-H2052 cells, 24 hours with compound.
Format: cell-based, human
Experimental: The detection of CTGF expression level can assessed the binding activity of TEAD-YAP/TAZ transcription factor, and the CTGF expression level was quantified by SimpleStep ELISA® kit (Abcam, ab261851).
NCI-H2052 cells (Purchased from ATCC) were cultured in RPMI 1640 medium, adding 10% FBS and 1% Penicillin-Streptomycin Solution and 1 mM Sodium pyruvate. The day before compounds treatment, the cultured cells were washed with PBS and digested with trypsin, then centrifuged and collected. Discarded the supernatant, the cells were resuspended in fresh complete medium. After cells counted, cells were seeded at 6500 cells/well in 96-well plates. And then cells were cultured overnight in incubator (37° C., 5% CO2).
After the cells were cultured overnight, discarded the culture supernatant, then washed with PBS solution, cells were incubated with 200 μl medium containing compounds in each well. The starting concentration was 10 μM and serial dilution in DMSO and medium were performed to achieve a final DMSO concentration of 0.5% (Final compounds concentration were 10000, 2500, 625, 156, 39.1, 9.77, 2.44, 0.61 nM, 0 nM (0.5% DMSO), The cells were then cultured in incubator (37° C., 5% CO2). Cultured for 24 hours, the cells were centrifuged at 1500 RPM at 4° C. for 5 minutes, and then 50 μl of culture supernatant were tested for CTGF ELISA assay.
The Human CTGF SimpleStep ELISA® Kit (Abcam, ab261851) employs an affinity tag labeled capture antibody and a reporter conjugated detector antibody which immunocapture the sample analyte in solution. This entire complex (capture antibody/analyte/detector antibody) is in turn immobilized via immunoaffinity of an anti-tag antibody coating the well. To perform the assay, samples or standards are added to the wells, followed by the antibody mix (capture antibody/detector antibody). After incubation, the wells are washed to remove unbound material. TMB Development Solution is added and during incubation is catalyzed by HRP, generating blue coloration. This reaction is then stopped by addition of Stop Solution completing any color change from blue to yellow. Signal is generated proportionally to the amount of bound analyte and the intensity is measured at 450 nm. Firstly, prepare all reagents, samples, and standards as instructed. Add 50 μl standard or sample to appropriate wells. Then add 50 μl of the Antibody Cocktail to each well. Seal the plate and incubate for 1 hour at room temperature on a plate shaker. Wash each well with Wash Buffer three times. Add 100 μl of TMB Development Solution to each well and incubate for 10 minutes in the dark on a plate shaker. Add 100 μl of Stop Solution to each well. Shake plate on a plate shaker for 1 minute to mix. Record the OD at 450 nm. Determine the concentration of the target protein in the sample by the standard curve.
EC50 value was determined by fitting the concentration response curves using GraphPad Prism software. The compounds of the present invention were tested for their capacity to inhibit TEAD-YAP/TAZ interaction according to the fitted curves of CTGF concentration response to compounds.

SMILES | EC50 [nM]
C=C(F)C(=O)N1CC(n2c(=O)n(-c3ccc(C(F)(F)F)cc3)c3cc(C)cnc32)C1 [Compound 244, 3-(1-(2-fluoroacryloyl)azetidin-3-yl)-6-methyl-1-(4-(trifluoromethyl)phenyl)-1,3-dihydro-2H-imidazo[4,5-b]pyridin-2-one] | 11
C=CC(=O)N1CC(n2nc(-c3ccc(C(F)(F)F)nc3)c3ncccc32)C1 [Compound 131, 1-(3-(3-(6-(trifluoromethyl)pyr-idin-3-yl)-1H-pyrazolo[4,3-b]-pyridin-1-yl)azetidin-1-yl)prop-2-en-1-one] | 18
C=CC(=O)N1CCC2(CCC(n3nc(-c4ccc(C(F)(F)F)cc4)c4ncccc43)C2)C1 (stereo not shown) [Compound 125, 1-(7-(3-(4-(trifluoromethyl)phen-yl)-1H-pyrazolo[4,3-b]pyridin-1-yl)-2-azaspiro[4.4]nonan-2-yl)-prop-2-en-1-one] | 75
C=CC(=O)N1CCC(n2nc(-c3ccc(C(F)(F)F)cc3)c3ncn(C)c(=O)c32)C1 (stereo not shown) [Compound 7, 1-(1-acryloylpyrrolidin-3-yl)-6-methyl-3-(4-(trifluoromethyl)phenyl)-1,6-dihydro-7H-pyrazolo[4,3-d]pyrimidin-7-one] | 5
C=C(F)C(=O)N1CC(n2nc(-c3ccc(C(F)(F)F)nc3)c3ccc(C)nc32)C1 [Compound 199, 2-fluoro-1-(3-(6-methyl-3-(6-(trifluoromethyl)pyridin-3-yl)-1H-pyrazolo[3,4-b]pyridin-1-yl)-azetidin-1-yl)prop-2-en-1-one] | 20
C=C(F)C(=O)N1CC(n2nc(-c3ccc(C(F)(F)F)cc3)c3ccc(Cl)nc32)C1 [Compound 187, 1-(3-(6-chloro-3-(4-(trifluoro-methyl)phenyl)-1H-pyrazolo[3,4-b]pyridin-1-yl)azetidin-1-yl)-2-fluoroprop-2-en-1-one] | 2
C=CC(=O)N1CCC(n2nc(-c3ccc(C(F)(F)F)nc3)c3cccc(C(=O)NC4COC4)c32)C1 (stereo not shown) [Compound 101, 1-(1-acryloylpyrrolidin-3-yl)-N-(oxetan-3-yl)-3-(6-(trifluorometh-yl)pyridin-3-yl)-1H-indazole-7-carboxamide] | 97
C=CC(=O)N1CCCC(n2nc(-c3ccc(C(F)(F)F)cc3)c3cccnc32)C1 (stereo not shown) [Compound 33, 1-(3-(3-(4-(trifluoromethyl)phen-yl)-1H-pyrazolo[3,4-b]pyridin-1-yl)piperidin-1-yl)prop-2-en-1-one] | 32
C=C(F)C(=O)NCC(C(=O)O)n1nc(-c2ccc(C(F)(F)F)cc2)c2cccnc21 (stereo not shown) [Com. EX.2, 3-(2-fluoroacrylamido)-2-(3-(4-(trifluoromethyl)phenyl)-1H-pyrazolo[3,4-b]pyridin-1-yl)propanoic acid, reference compound] | > 10000
C=CC(=O)N1CC(n2c(=N)n(-c3ccc(C(F)(F)F)cc3)c3ccccc32)C1 [Compound 231, 1-(3-(2-imino-3-(4-(trifluoromethyl)phenyl)-2,3-dihydro-1H-benzo[d]imidazol-1 yl)azetidin-1 yl)prop-2-en-1-one] | 360
C=CC(=O)N1CCC(n2nc(-c3ccc(C(F)(F)F)cc3)c3cccc(C(F)(F)F)c32)C1 (stereo not shown) [Compound 46, 1-(3-(7-(trifluoromethyl)-3-(4-(trifluoromethyl)phenyl)-1H-indazol-1-yl)pyrrolidin-1-yl)-prop-2-en-1-one] | 12
C=CC(=O)N1CC(n2nc(-c3ccc(C(F)(F)F)nc3)c3cccnc32)C1 [Compound 123, 1-(3-(3-(6-(trifluoromethyl)pyr-idin-3-yl)-1H-pyrazolo[3,4-b]-pyridin-1-yl)azetidin-1-yl)prop-2-en-1-one] | 7
C=CC(=O)N1CCC(Cn2nc(-c3ccc(C(F)(F)F)cc3)c3ccccc32)C1 (stereo not shown) [Compound 34, 1-(3-((3-(4-(trifluoromethyl)phen-yl)-1H-indazol-1-yl)methyl)-pyrrolidin-1-yl)prop-2-en-1-one] | 137
C=CC(=O)N1CCC(n2nc(-c3ccc(C(F)(F)F)cc3)c3cccc(C(=O)OC)c32)C1 (stereo not shown) [Compound 78, methyl 1-(1-acryloylpyrrolidin-3-yl)-3-(4-(trifluoromethyl)phenyl)-1H-indazole-7-carboxylate] | 21
C=C(F)C(=O)N1CC(n2nc(-c3ccc(C#N)c(C(F)(F)F)c3)c3cccnc32)C1 [Compound 178, 4-(1-(1-(2-fluoroacryloyl)azetidin-3-yl)-1H-pyrazolo[3,4-b]pyridin-3-yl)-2-(trifluoromethyl)benzo-nitrile] | 34
C=C(F)C(=O)N1CC(n2nc(-c3ccc(C(F)(F)F)cc3)c3ccc(N(C)C)nc32)C1 [Compound 122, 1-(3-(6-(dimethylamino)-3-(4-(trifluoromethyl)phenyl)-1H-pyrazolo[3,4-b]pyridin-1-yl)-azetidin-1-yl)-2-fluoroprop-2-en-1-one] | 24
CC(=O)N1CCC(n2nc(-c3ccc(C(F)(F)F)cc3)c3ccccc32)C1 (stereo not shown) [Com. EX.3, 1-(3-(3-(4-(trifluoromethyl)phenyl)-1H-indazol-1-yl)pyrrolidin-1-yl)ethan-1-one, reference compound] | > 10000
C=CC(=O)N1CCC(n2nc(-c3ccc(C(F)(F)F)cc3)c3cccc(OC)c32)C1 (stereo not shown) [Compound 44, 1-(3-(7-methoxy-3-(4-(trifluoro-methyl)phenyl)-1H-indazol-1-yl)-pyrrolidin-1-yl)prop-2-en-1-one] | 20
C=CC(=O)N1CCC(n2nc(-c3ccc(C(F)(F)F)cc3)c3ccc(OC)cc32)C1 (stereo not shown) [Compound 54, 1-(3-(6-methoxy-3-(4-(trifluoro-methyl)phenyl)-1H-indazol-1-yl)-pyrrolidin-1-yl)prop-2-en-1-one] | 32
C=CC(=O)N1CC(n2nc(-c3ccc(C4CC4)cc3)c3ncccc32)C1 [Compound 120, 1-(3-(3-(4-cyclopropylphenyl)-1H-pyrazolo[4,3-b]pyridin-1-yl)-azetidin-1-yl)prop-2-en-1-one] | 36
C=CC(=O)N1CC(n2nc(-c3ccc(C(F)(F)F)cc3)c3ncccc32)C1 [Compound 82, 1-(3-(3-(4-(trifluoromethyl)phen-yl)-1H-pyrazolo[4,3-b]pyridin-1-yl)azetidin-1-yl)prop-2-en-1-one] | 5
C=C(F)C(=O)N1CC(n2nc(-c3ccc(C(F)(F)F)cc3)c3ccc[n+]([O-])c32)C1 [Compound 165, 1-(1-(2-fluoroacryloyl)azetidin-3-yl)-3-(4-(trifluoromethyl)phenyl)-1H-pyrazolo[3,4-b]pyridine 7-oxide] | 40
C=CC(=O)N1CCC(n2nc(-c3ccc(C(F)(F)F)cc3)c3cc(OC)cnc32)C1 (stereo not shown) [Compound 94, 1-(3-(5-methoxy-3-(4-(trifluoro-methyl)phenyl)-1H-pyrazolo[3,4-b]pyridin-1-yl)pyrrolidin-1-yl)-prop-2-en-1-one] | 12
CCOC(=O)N1CC(n2nc(-c3ccc(OC(F)(F)F)cc3)c3cccnc32)C1 [Com. EX.5, ethyl 3-(3-(4-(trifluoromethoxy)phenyl)-1H-pyrazolo[3,4-b]pyridin-1-yl)azetidine-1-carboxylate, reference compound] | > 10000
C=CC(=O)N1CCC(n2nc(-c3ccc(C(F)(F)F)cc3)c3cnccc32)C1 (stereo not shown) [Compound 23, 1-(3-(3-(4-(trifluoromethyl)phen-yl)-1H-pyrazolo[4,3-c]pyridin-1-yl)pyrrolidin-1-yl)prop-2-en-1-one] | 16
C=C(F)C(=O)N1CC(n2nc(-c3ccc(C(F)(F)F)cc3)c3ccnc(OC)c32)C1 [Compound 222, 2-fluoro-1-(3-(7-methoxy-3-(4-(trifluoromethyl)phenyl)-1H-pyrazolo[3,4-c]pyridin-1-yl)-azetidin-1-yl)prop-2-en-1-one] | 0.9
CC#CC(=O)N1CCC(n2nc(-c3ccc(C(F)(F)F)cc3)c3ccccc32)C1 (stereo not shown) [Compound 55, 1-(3-(3-(4-(trifluoromethyl)phen-yl)-1H-indazol-1-yl)pyrrolidin-1-yl)but-2-yn-1-one] | 16
C=CC(=O)N1CCC(n2nc(-c3ccc(C(F)(F)F)cc3)c3nc[nH]c(=O)c32)C1 (stereo not shown) [Compound 2, 1-(1-acryloylpyrrolidin-3-yl)-3-(4-(trifluoromethyl)phenyl)-1,6-dihydro-7H-pyrazolo[4,3-d]pyrimidin-7-one] | 25
